This note sets out measurements from ChEMBL document CHEMBL5154651, “Substituent effect of benzyl moiety in nitroquinoxaline small molecules upon DNA binding: Cumulative destacking of DNA nucleobases leading to histone eviction” (Eur J Med Chem, 2022).

Activity calls are given as the source filed them. No cut-off for these calls is given here.

Assay [1] has as its system GC rich DNA. Put plainly: Displacement of Ethidium bromide from native ds-GC12 short DNA (unknown origin) by Stern-Volmer quenching plot analysis. It counts as nucleic-acid assay.
The subject of assay [2] is Calf thymus DNA. Kind of assay: Binding affinity to calf thymus DNA by isothermal titration calorimetry. The conditions noted are these: Bos taurus. It counts as nucleic-acid assay. On the technique in general: ITC needs no label: the signal is the heat of the interaction.
Assay [3] has as its system Calf thymus DNA. Kind of assay: Binding affinity to calf thymus DNA assessed as change in entropy by isothermal titration calorimetry. It is filed as nucleic-acid assay. Conditions: Bos taurus.
Assay [4] deals with DNA. Put plainly: Induction of GC-rich pYUB12 plasmid DNA (unknown origin) unwinding assessed as DNA structural changes at DNA base-pair to compound ratio of 1:6 incubated for 16 hrs by mobility shift assay. It counts as nucleic-acid assay.
Assay [5] concerns GC rich DNA. Kind of assay: Disruption of native ds-GC12 DNA (unknown origin) base stacking interaction assessed as decrease in positive peak intensity at 283 nm at DNA base-pair to compound ratio of 1:4 by circular dichroism analysis. It counts as nucleic-acid assay. (In general: Circular dichroism is the unequal absorption of left and right circularly polarised light.)
In assay [6] the test system is Calf thymus DNA. Put plainly: Binding affinity to calf thymus DNA assessed as change in enthalpy by isothermal titration calorimetry. It is filed as nucleic-acid assay. The conditions noted are these: Bos taurus.
Assay [7] deals with Calf thymus DNA. Kind of assay: Binding affinity to calf thymus DNA assessed as change in free energy by isothermal titration calorimetry. It counts as nucleic-acid assay. Conditions: Bos taurus.
Assay [8] concerns GC rich DNA. Kind of assay: Disruption of native ds-GC12 DNA (unknown origin) base stacking interaction assessed as appearance of ICD at 325 nm by circular dichroism analysis. It is filed as nucleic-acid assay.
Assay [9] in a line: Induction of histone eviction from single assembled nucleosome (unknown origin) assessed as reduction in nucleosome band intensity at 75 uM incubated for 4 hrs by silver staining based gel electrophoresis assay.
The subject of assay [10] is DNA. Kind of assay: Induction of GC-rich pYUB12 plasmid DNA (unknown origin) unwinding assessed as complete conformational change as condensed form at DNA base-pair to compound ratio of 1:2 incubated for 16 hrs by mobility shift assay. It is filed as nucleic-acid assay.
The subject of assay [11] is DNA. Kind of assay: Induction of GC-rich pYUB12 plasmid DNA (unknown origin) unwinding assessed as complete structural change with DNA condensation by measuring increase in condensed DNA band intensity at DNA base-pair to compound ratio of 1:1.5 incubated for 16 hrs by mobility shift assay. It is filed as nucleic-acid assay.
The test system of assay [12] is GC rich DNA. Put plainly: Disruption of native ds-GC12 DNA (unknown origin) base stacking interaction assessed as decrease in positive peak intensity at 283 nm by circular dichroism analysis. It is filed as nucleic-acid assay.
Assay [13] relates to GC rich DNA. Put plainly: Disruption of native ds-GC12 DNA (unknown origin) base stacking interaction assessed as appearance of ICD at 320 to 330 nm by circular dichroism analysis. It is filed as nucleic-acid assay.
Assay [14] has as its system DNA. Kind of assay: Induction of GC-rich pYUB12 plasmid DNA (unknown origin) unwinding assessed as DNA structural changes at DNA base-pair to compound ratio of 1:4 incubated for 16 hrs by mobility shift assay. It is filed as nucleic-acid assay.
Assay [15] relates to GC rich DNA. Kind of assay: Disruption of native ds-GC12 DNA (unknown origin) base stacking interaction assessed as DNA structural changes by circular dichroism analysis. It counts as nucleic-acid assay.
Assay [16] concerns GC rich DNA. Put plainly: Disruption of native ds-GC12 DNA (unknown origin) base stacking interaction assessed as DNA structural changes at DNA base-pair to compound ratio of 1:4 by circular dichroism analysis. It counts as nucleic-acid assay.
Another assay relates to HCT-116. Kind of assay: Cytotoxicity against human HCT-116 cells assessed as reduction in cell viability incubated for 24 hrs by MTT assay. It counts as functional, cell-based. Conditions: HCT-116, 24 h. For orientation: Formazan colour is commonly taken as a measure of viable cells.

For `CN(C)CCCNc1nc2cc([N+](=O)[O-])ccc2nc1NCc1ccncc1`, the KSV in the assay with GC rich DNA [1] is < 0.3 10^4/M.

On to `CN(C)CCCNc1nc2cc([N+](=O)[O-])ccc2nc1NCc1ccc(O)cc1`, for which the Ka in the assay on Calf thymus DNA [2] was 3.96 10^4/M. Moreover, the TdeltaS with Calf thymus DNA [3] was 4.88 kcal/mol. For the same molecule, in the assay on GC rich DNA [1], the KSV is < 1 10^4/M. Also, the result with DNA [4] and with GC rich DNA [5] was Active. The deltaH in the assay with Calf thymus DNA [6] is -1.5 kcal/mol. Further, in the assay with Calf thymus DNA [7], the deltaG was -6.38 kcal/mol.

For `CN(C)CCCNc1nc2cc([N+](=O)[O-])ccc2nc1NCc1ccc(C(F)(F)F)cc1`, the outcome (in the assay on GC rich DNA [8]; in assay [9]; with DNA [10]; in the assay with DNA [11]) was Active. Moreover, the KSV in the assay with GC rich DNA [1] was 4.6 10^4/M.

For `CN(C)CCCNc1nc2cc([N+](=O)[O-])ccc2nc1NCc1ccc(Br)cc1`, the outcome in the assay with DNA [10], in the assay with DNA [4], in the assay on GC rich DNA [12] and in the assay on GC rich DNA [13] was Active. Also, the KSV in the assay with GC rich DNA [1] was 2.8 10^4/M.

With `CN(C)CCCNc1nc2cc([N+](=O)[O-])ccc2nc1NCc1ccc(N)cc1`, the KSV in the assay on GC rich DNA [1] is < 1 10^4/M. The outcome in the assay with DNA [4] and with GC rich DNA [5] was Active.

On to `Cc1ccc(CNc2nc3ccc([N+](=O)[O-])cc3nc2NCCCN(C)C)cc1`, for which, in the assay on Calf thymus DNA [2], the Ka is 1.54 10^5/M. In the assay with Calf thymus DNA [3], the TdeltaS was 5.34 kcal/mol. Also, the KSV in the assay with GC rich DNA [1] was 1.7 10^4/M. The deltaH in the assay on Calf thymus DNA [6] is -1.86 kcal/mol. The outcome in the assay with DNA [14] and in the assay on GC rich DNA [15] was Active. The deltaG in the assay with Calf thymus DNA [7] was -7.2 kcal/mol.

On to `CN(C)CCCNc1nc2cc([N+](=O)[O-])ccc2nc1NCc1ccc(Cl)cc1`, for which, in the assay on GC rich DNA [1], the KSV was 2.4 10^4/M. In addition, the outcome in the assay with GC rich DNA [12], in the assay with GC rich DNA [13] and with DNA [14] was Active.

Regarding `COc1ccc(CNc2nc3ccc([N+](=O)[O-])cc3nc2NCCCN(C)C)cc1`, the KSV with GC rich DNA [1] was < 1 10^4/M. The outcome in the assay on DNA [4] and in the assay with GC rich DNA [5] was Active.

As to `CN(C)CCCNc1nc2cc([N+](=O)[O-])ccc2nc1NCc1ccccc1`, the KSV with GC rich DNA [1] was < 1 10^4/M. The result in the assay on DNA [4] and in the assay with GC rich DNA [5] was Active.

For `CN(C)CCCNc1nc2cc([N+](=O)[O-])ccc2nc1NCc1cccs1`, in the assay on GC rich DNA [1], the KSV is < 0.3 10^4/M. Besides, in the assay with GC rich DNA [16], the result was Active.

For `CN(C)CCCNc1nc2cc([N+](=O)[O-])ccc2nc1NCc1ccc(F)cc1`, the KSV in the assay with GC rich DNA [1] is 1.26 10^4/M. The result in the assay with GC rich DNA [5] was Active.

A word on the IC50: it is the concentration needed to halve the response being measured. With `O=[N+]([O-])c1ccc2nc(NCc3ccccc3)c(N3CCCCC3)nc2c1`, the IC50 in the assay with HCT-116 is above 50 µM. Besides, the KSV with GC rich DNA [1] was 0.19 10^4/M.

`CN(C)CCCNc1nc2cc([N+](=O)[O-])ccc2nc1NCc1ccc(C#N)cc1`: the KSV in the assay with GC rich DNA [1] was < 1 10^4/M. Besides, the result in the assay with DNA [4] was Active.

In the case of `CN(C)CCCNc1nc2cc([N+](=O)[O-])ccc2nc1NCc1ccco1`, in the assay on GC rich DNA [1], the KSV is < 0.3 10^4/M.

As for `CN(C)CCCNc1nc2cc([N+](=O)[O-])ccc2nc1NCc1ccc([N+](=O)[O-])cc1`, the KSV in the assay with GC rich DNA [1] is < 1 10^4/M. Moreover, the result in the assay with DNA [4] and in the assay on GC rich DNA [5] was Active.
